Measured values taken from publication PMC8151276, “An Integrated Approach toward NanoBRET Tracers for Analysis of GPCR Ligand Engagement” (Molecules, 2021).

What was measured:
Assay type in all cases: binding
C5AR1 = target: T1, C5AR1 (Homo sapiens, UniProt P21730); assay: NanoBRET screen HiBiT-C5AR1 in HEK293
T1 construct: purchased Promega (in-house HiBiT-GPCR construct library, NanoBRET)
T1 sequence (P21730 1-350): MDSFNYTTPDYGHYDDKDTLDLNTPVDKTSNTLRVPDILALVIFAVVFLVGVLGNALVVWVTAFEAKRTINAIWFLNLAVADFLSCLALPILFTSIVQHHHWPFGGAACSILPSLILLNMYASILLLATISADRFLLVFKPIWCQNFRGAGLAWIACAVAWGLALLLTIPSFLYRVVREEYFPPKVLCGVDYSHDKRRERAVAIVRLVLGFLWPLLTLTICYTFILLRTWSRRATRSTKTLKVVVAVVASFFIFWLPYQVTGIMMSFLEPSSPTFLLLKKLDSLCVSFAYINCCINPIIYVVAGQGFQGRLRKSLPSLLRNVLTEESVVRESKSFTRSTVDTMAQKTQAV
Protocol: (§1) Each tracer candidate was screened across the entire library of HiBiT-GPCR constructs using NanoBRET as the detection modality. As depicted in Figure 4A, the specificity of interactions was evaluated through decrease in BRET due to competitive displacement of a bound tracer by excess parental compound. Each tracer was analyzed for binding to each HiBiT-GPCR fusion in the absence and in the presence of competing parental compound. Briefly, HEK293 cells were transfected with HiBiT-GPCR constructs diluted into promoterless DNA to reduce expression and maximize translocation to the cell surface. Each tracer candidate was then screened at concentrations of 1 μM and 0.1 μM across cells expressing these fusions. Cells were treated for 1.5 h with tracer either alone or in the presence of 20 μM competing parental compound (i.e., control). BRET was measured upon addition of purified LgBiT and subsequent complementation with HiBiT genetically fused to a GPCR. The specificity of interactions was assessed through a decrease in BRET signal due to competitive displacement of the bound tracer. To further gauge the robustness of these interactions, the fold response over the control (i.e., BRETtracer/BRETcontrol) was calculated. We chose a 1.5-fold response, which translates to ≥7-fold signal over noise as the minimal threshold required to score an interaction as positive. […]. Below we highlight the screening results obtained for our exemplary fluorescent tracers based on Clozapine, Amitriptyline and AZD1283.
(§2) HiBiT-GPCR DNA constructs were diluted in 10 mM Tris pH 8 to a final concentration of 0.01 μg/μL, arrayed in 96-well plates and stored at −20 °C. For transfection, HEK293 cells were suspended in Opti-MEM (without phenol red) supplemented with 2% fetal bovine serum (Seradigm) and 100 units/mL penicillin–streptomycin (Gibco) at a final concentration of 220,000 cells/mL and dispensed into white 96-well plates at 90 μL/well. Subsequent transfections and screens were carried using an Agilent Bravo Automated Liquid Handling Platform. First, the 96-well HiBiT DNA arrays were diluted 25-fold in Opti-MEM (without serum or phenol red) to a final concentration of 0.0004 μg/μL and 20 μL of the diluted DNAs were transferred into new 96-well plates. Next, promoterless carrier DNA (1 μg/μL) was diluted 25-fold (0.04 μg/μL) and then dispensed into the diluted arrays at 20 μL/well. Following brief mixing, Viafect transfection reagent (Promega) diluted 16-fold into Opti-MEM was dispensed into the plates at 40 μL/well. After mixing by pipetting, plates were incubated for 10 min on the pipetting station deck. The DNA-transfection reagent complexes were then added to plates containing cells. To facilitate the screen, 10 μL of DNA-transfection reagent complexes were added in duplicates to the top 4 and bottom 4 rows, resulting in two identical 48-well arrays per plate. Plates with transfected cells were incubated for 18–20 h at 37 °C/5% CO2. A screen of each tracer across the entire library using two different concentrations requires duplicate plates of transfected cells. Depending on the number of tracers being screened, transfections can be scaled up using the same ratios. The next day, for each tracer, four 20× screening solutions in tracer dilution buffer (Promega) were prepared: two duplicates at final concentration of 20 μM and two duplicates at a final concentration of 2 μM. A competing unmodified compound was added to one of each duplicate at a final concentration of 400 μM. The four resulting solutions were diluted 4-fold in Opti-MEM without serum or phenol red to generate 5× solutions (5 µM and 0.5 µM tracer +/− 100 μM competing compound). To screen the library, a BioTek MultiFlo FX liquid dispenser was used to dispense 22.5 µL of tracer solution to the top 4 rows and 22.5 µL tracer + competing compound solution to the 4 bottom rows. Plates were briefly mixed on an orbital shaker and incubated for 1.5 h at room temperature. […]

CCR5 = target: T2, CCR5 (Homo sapiens, UniProt P51681); assay: NanoBRET screen HiBiT-CCR5 in HEK293
T2 construct: purchased Promega (in-house HiBiT-GPCR construct library, NanoBRET)
Protocol: as §1, §2

VIPR2 = target: T3, VIPR2 (Homo sapiens, UniProt P41587); assay: NanoBRET screen HiBiT-VIPR2 in HEK293
T3 construct: purchased Promega (in-house HiBiT-GPCR construct library, NanoBRET)
T3 sequence (P41587 24-438): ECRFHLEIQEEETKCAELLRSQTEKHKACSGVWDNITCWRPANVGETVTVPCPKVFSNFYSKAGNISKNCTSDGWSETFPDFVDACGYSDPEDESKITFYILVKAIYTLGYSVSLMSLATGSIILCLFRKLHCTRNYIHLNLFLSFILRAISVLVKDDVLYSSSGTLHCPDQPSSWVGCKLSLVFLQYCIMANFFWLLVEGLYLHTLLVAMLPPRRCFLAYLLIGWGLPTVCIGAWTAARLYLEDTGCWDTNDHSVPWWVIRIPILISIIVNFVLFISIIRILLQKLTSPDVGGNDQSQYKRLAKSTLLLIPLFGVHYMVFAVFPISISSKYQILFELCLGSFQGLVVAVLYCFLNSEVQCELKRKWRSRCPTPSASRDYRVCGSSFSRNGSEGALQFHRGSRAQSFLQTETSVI
Protocol: as §1, §2

[1] = tracer at 0.1μM, listed as amitriptyline-b-2-NB590
[2] = tracer at 1μM, listed as amitriptyline-b-2-NB590

T2 sequence (P51681 whole entry): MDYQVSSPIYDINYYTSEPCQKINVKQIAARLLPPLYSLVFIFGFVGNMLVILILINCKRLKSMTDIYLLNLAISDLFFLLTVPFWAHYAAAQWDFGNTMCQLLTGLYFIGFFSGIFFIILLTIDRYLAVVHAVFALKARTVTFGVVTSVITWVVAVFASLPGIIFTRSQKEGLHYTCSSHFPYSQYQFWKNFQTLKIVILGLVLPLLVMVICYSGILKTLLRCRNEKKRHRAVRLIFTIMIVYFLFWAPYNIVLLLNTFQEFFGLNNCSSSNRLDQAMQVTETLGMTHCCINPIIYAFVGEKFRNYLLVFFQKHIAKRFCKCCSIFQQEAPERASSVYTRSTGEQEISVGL

Row | SMILES | NanoBRET Fold Response (C5AR1; C5AR1, tracer 0.1μM) | NanoBRET Fold Response (C5AR1; C5AR1, tracer 1μM) | NanoBRET Fold Response (CCR5; CCR5, tracer 0.1μM) | NanoBRET Fold Response (CCR5; CCR5, tracer 1μM) | NanoBRET Fold Response (VIPR2; VIPR2, tracer 0.1μM) | NanoBRET Fold Response (VIPR2; VIPR2, tracer 1μM) | other results
1 | CC(C)N(CC[C@H](c1ccccc1)c1cc(CCNC(=O)c2ccc(CNC(=O)CCc3ccc4n3[B-](F)(F)[N+]3=C(c5ccc[nH]5)C=CC3=C4)cc2)ccc1O)C(C)C [Tolterodine-BZ-NB590] | 1.01 | 1.11 | 1.09 | 0.97 | 0.98 | 1.07 | –
2 | O=C(CCc1ccc2n1[B-](F)(F)[N+]1=C(c3ccc[nH]3)C=CC1=C2)NCCOCCOCCNC(=O)OCCOCCN1CCN(C2=Nc3ccccc3Sc3ccccc32)CC1 [Quetiapine-a-2-NB590] | 1.07 | 0.84 | 0.95 | 0.85 | 0.96 | 0.96 | –
3 | CN1CCN(C2=Nc3cc(Cl)ccc3Nc3ccc(CNC(=O)CCOCCOCCOCCOCCNC(=O)CCc4ccc5n4[B-](F)(F)[N+]4=C(c6ccc[nH]6)C=CC4=C5)cc32)CC1 [Clozapine-b-2-NB590] | – | – | – | – | – | – | NanoBRET Fold Response (C5AR1; C5AR1, 0.1μM tracer): 0.98; NanoBRET Fold Response (C5AR1; C5AR1, 1μM tracer): 1.02; NanoBRET Fold Response (CCR5; CCR5, 0.1μM tracer): 1.05; NanoBRET Fold Response (CCR5; CCR5, 1μM tracer): 0.92; NanoBRET Fold Response (VIPR2; VIPR2, 0.1μM tracer): 1.02; NanoBRET Fold Response (VIPR2; VIPR2, 1μM tracer): 0.96
4 | CC(C)N(CC[C@H](c1ccccc1)c1cc(CCNC(=O)CCOCCOCCOCCOCCNC(=O)CCc2ccc3n2[B-](F)(F)[N+]2=C(c4ccc[nH]4)C=CC2=C3)ccc1O)C(C)C [Tolterodine-2-NB590] | 0.95 | 1.08 | 1.03 | 1.01 | 0.98 | 1.04 | –
5 | CN(C)CCC=C1c2ccccc2CCc2ccc(C(=O)NCCNC(=O)CCOCCOCCOCCOCCNC(=O)CCc3ccc4n3[B-](F)(F)[N+]3=C(c5ccc[nH]5)C=CC3=C4)cc21 [Amitriptyline-a-2-NB590] | – | – | – | – | – | – | NanoBRET Fold Response (C5AR1; tracer at 0.1μM): 1.03; NanoBRET Fold Response (C5AR1; tracer at 1μM): 1.01; NanoBRET Fold Response (CCR5; tracer at 0.1μM): 0.99; NanoBRET Fold Response (CCR5; tracer at 1μM): 1.01; NanoBRET Fold Response (VIPR2; tracer at 0.1μM): 0.95; NanoBRET Fold Response (VIPR2; tracer at 1μM): 1.02
6 | Cc1cc2c(s1)Nc1ccccc1N=C2N1CCN(CCCNC(=O)CCOCCOCCOCCOCCNC(=O)CCc2ccc3n2[B-](F)(F)[N+]2=C(c4ccc[nH]4)C=CC2=C3)CC1 [Olanzapine-a-2-NB590] | 1.06 | 1.09 | 1.00 | 0.89 | 1.00 | 1.05 | –
7 | N#CN=C(NCCCOc1cccc(CN2CCCCC2)c1)NCCNC(=O)CCOCCOCCOCCOCCNC(=O)CCc1ccc2n1[B-](F)(F)[N+]1=C(c3ccc[nH]3)C=CC1=C2 [Aminopotentidine-2-NB590] | 0.99 | 0.98 | 1.00 | 1.11 | 1.01 | 1.08 | –
8 | Cc1nc2n(c(=O)c1CCN1CCC(c3noc4cc(F)ccc34)CC1)CCCC2OC(=O)NCCOCCOCCOCCOCCNC(=O)CCc1ccc2n1[B-](F)(F)[N+]1=C(c3ccc[nH]3)C=CC1=C2 (stereo not drawn) [Risperidone-2-NB590] | 0.95 | 0.99 | 0.96 | 0.90 | 1.03 | 0.91 | –
9 | CN(C)CCC=C1c2ccccc2CCc2ccc(C(=O)NCCNC(=O)CCOCCOCCOCCOCCNC(=O)CCc3ccc4n3[B-](F)(F)[N+]3=C(c5ccc[nH]5)C=CC3=C4)cc21 [Amitriptyline-b-2-NB590] | – | – | – | – | – | – | NanoBRET Fold Response (C5AR1; [1]): 1.01; NanoBRET Fold Response (C5AR1; tracer at 1μM): 0.97; NanoBRET Fold Response (CCR5; [1]): 1.14; NanoBRET Fold Response (CCR5; [2]): 1.07; NanoBRET Fold Response (VIPR2; [1]): 1.31; NanoBRET Fold Response (VIPR2; [2]): 1.31
